Results: ChEMBL document CHEMBL1649218, “New treatment option for second-stage African sleeping sickness: in vitro and in vivo efficacy of aza analogs of DB289” (Antimicrob Agents Chemother, 2009)
In brackets after ≈: the same amount, converted by molar mass. Activity calls are given as the source filed them. No cut-off for these calls is given here.

Legend:
[1] = system: Trypanosoma brucei rhodesiense; assay: Antitrypanosomal activity against wild-type Trypanosoma brucei rhodesiense STIB900 infected in NMRI mouse assessed as survival of mouse at 5 mg/kg, po for 4 days; type: functional
[2] = system: Trypanosoma brucei brucei; assay: Antitrypanosomal activity against Trypanosoma brucei brucei GVR35 infected in NMRI mouse CNS model assessed as survival of mouse at 100 mg/kg, po for 5 days; type: functional
[3] = system: Trypanosoma brucei rhodesiense; assay: Antitrypanosomal activity against wild-type Trypanosoma brucei rhodesiense STIB900 infected in NMRI mouse assessed as cure from infection at 5 mg/kg, po for 4 days; type: functional, organism-based; parameters: dose 5 mg/kg
[4] = system: Trypanosoma brucei rhodesiense; assay: Antitrypanosomal activity against wild-type Trypanosoma brucei rhodesiense STIB900 infected in NMRI mouse assessed as survival of mouse at 25 mg/kg, po for 4 days; type: functional
[5] = system: Trypanosoma brucei rhodesiense; assay: Antitrypanosomal activity against wild-type Trypanosoma brucei rhodesiense STIB900 infected in NMRI mouse assessed as cure from infection at 25 mg/kg, po for 4 days; type: functional, organism-based; parameters: dose 25 mg/kg
[6] = system: Trypanosoma brucei brucei; assay: Antitrypanosomal activity against Trypanosoma brucei brucei AT1KO by Alamar blue assay; type: functional, organism-based
[7] = system: Trypanosoma brucei gambiense; assay: Antitrypanosomal activity against Trypanosoma brucei gambiense ITMAP141267 by Alamar blue assay; type: functional, organism-based
[8] = system: Trypanosoma brucei rhodesiense; assay: Antitrypanosomal activity against wild-type Trypanosoma brucei rhodesiense STIB900 by Alamar blue assay; type: functional, organism-based
[9] = system: Trypanosoma brucei rhodesiense; assay: Antitrypanosomal activity against melasoprol-resistant Trypanosoma brucei rhodesiense STIB900 by Alamar blue assay; type: functional, organism-based
[10] = Ratio of IC50 for Trypanosoma brucei gambiense STIB930 to IC50 for wild-type Trypanosoma brucei rhodesiense […]; type: functional
[11] = system: Trypanosoma brucei brucei; assay: Ratio of IC50 for Trypanosoma brucei brucei AT1KO to IC50 for Trypanosoma brucei brucei BS221; type: functional
[12] = system: Trypanosoma brucei rhodesiense; assay: Ratio of IC50 for pentamidine-resistant Trypanosoma brucei rhodesiense STIB900 to IC50 for wild-type Trypanosoma brucei rhodesiense STIB900; type: functional
[13] = system: Trypanosoma brucei rhodesiense; assay: Ratio of IC50 for melasoprol-resistant Trypanosoma brucei rhodesiense STIB900 to IC50 for wild-type Trypanosoma brucei rhodesiense […]; type: functional
[14] = system: Trypanosoma brucei rhodesiense; assay: Antitrypanosomal activity against pentamidine-resistant Trypanosoma brucei rhodesiense STIB900 by Alamar blue assay; type: functional, organism-based
[15] = system: Trypanosoma brucei brucei; assay: Antitrypanosomal activity against Trypanosoma brucei brucei BS221 by Alamar blue assay; type: functional, organism-based
[16] = Ratio of IC50 for Trypanosoma brucei gambiense ITMAP141267 to IC50 for wild-type Trypanosoma brucei rhodesiense […]; type: functional
[17] = system: Trypanosoma brucei gambiense; assay: Antitrypanosomal activity against Trypanosoma brucei gambiense STIB930 by Alamar blue assay; type: functional, organism-based
[18] = Ratio of IC50 for Trypanosoma brucei gambiense K03048 to IC50 for wild-type Trypanosoma brucei rhodesiense STIB900; type: functional
[19] = system: Trypanosoma brucei gambiense; assay: Antitrypanosomal activity against Trypanosoma brucei gambiense K03048 by Alamar blue assay; type: functional, organism-based
[20] = system: Trypanosoma brucei gambiense; assay: Ratio of IC50 for Trypanosoma brucei gambiense K03048 to IC50 for Trypanosoma brucei gambiense STIB930; type: functional
[21] = system: Trypanosoma brucei brucei; assay: Antitrypanosomal activity against Trypanosoma brucei brucei GVR35 infected in NMRI mouse CNS model assessed as survival of mouse at 10 mg/kg, ip for 10 days; type: functional; conditions: route intraperitoneal
[22] = system: Trypanosoma brucei brucei; assay: Antitrypanosomal activity against Trypanosoma brucei brucei GVR35 infected in NMRI mouse CNS model assessed as cure from infection at 20 mg/kg, ip for 10 days; type: functional, organism-based; parameters: dose 20 mg/kg
[23] = system: Trypanosoma brucei rhodesiense; assay: Antitrypanosomal activity against wild-type Trypanosoma brucei rhodesiense STIB900 infected in NMRI mouse assessed as cure from infection at 10 mg/kg, ip for 4 days; type: functional, organism-based; parameters: dose 10 mg/kg
[24] = system: Trypanosoma brucei rhodesiense; assay: Antitrypanosomal activity against wild-type Trypanosoma brucei rhodesiense STIB900 infected in NMRI mouse assessed as survival of mouse at 0.5 mg/kg, ip for 4 days; type: functional; conditions: route intraperitoneal
[25] = system: Trypanosoma brucei brucei; assay: Antitrypanosomal activity against Trypanosoma brucei brucei GVR35 infected in NMRI mouse CNS model assessed as survival of mouse at 20 mg/kg, ip for 5 days; type: functional; conditions: route intraperitoneal
[26] = system: Trypanosoma brucei rhodesiense; assay: Antitrypanosomal activity against wild-type Trypanosoma brucei rhodesiense STIB900 infected in NMRI mouse assessed as cure from infection at 20 mg/kg, ip for 4 days; type: functional, organism-based; parameters: dose 20 mg/kg
[27] = system: Trypanosoma brucei brucei; assay: Antitrypanosomal activity against Trypanosoma brucei brucei GVR35 infected in NMRI mouse CNS model assessed as cure from infection at 10 mg/kg, ip for 10 days; type: functional, organism-based; parameters: dose 10 mg/kg
[28] = system: Trypanosoma brucei rhodesiense; assay: Antitrypanosomal activity against wild-type Trypanosoma brucei rhodesiense STIB900 infected in NMRI mouse assessed as survival of mouse at 20 mg/kg, ip for 4 days; type: functional; conditions: route intraperitoneal
[29] = system: Trypanosoma brucei brucei; assay: Antitrypanosomal activity against Trypanosoma brucei brucei GVR35 infected in NMRI mouse CNS model assessed as survival of mouse at 20 mg/kg, ip for 10 days; type: functional; conditions: route intraperitoneal
[30] = system: Trypanosoma brucei brucei; assay: Antitrypanosomal activity against Trypanosoma brucei brucei GVR35 infected in NMRI mouse CNS model assessed as survival of mouse at 75 mg/kg, po for 5 days; type: functional
[31] = system: Trypanosoma brucei brucei; assay: Antitrypanosomal activity against Trypanosoma brucei brucei GVR35 infected in NMRI mouse CNS model assessed as cure from infection at 100 mg/kg, po for 5 days; type: functional, organism-based; parameters: dose 100 mg/kg
[32] = system: Trypanosoma brucei brucei; assay: Antitrypanosomal activity against Trypanosoma brucei brucei GVR35 infected in NMRI mouse CNS model assessed as survival of mouse at 50 mg/kg, po for 5 days; type: functional
[33] = system: Trypanosoma brucei brucei; assay: Antitrypanosomal activity against Trypanosoma brucei brucei GVR35 infected in NMRI mouse CNS model assessed as survival of mouse at 25 mg/kg, po for 10 days; type: functional
[34] = system: Trypanosoma brucei brucei; assay: Antitrypanosomal activity against Trypanosoma brucei brucei GVR35 infected in NMRI mouse CNS model assessed as survival of mouse at 10 mg/kg, po for 10 days; type: functional
[35] = system: Trypanosoma brucei brucei; assay: Antitrypanosomal activity against Trypanosoma brucei brucei GVR35 infected in NMRI mouse CNS model assessed as survival of mouse at 25 mg/kg, po for 5 days; type: functional
[36] = system: Trypanosoma brucei brucei; assay: Antitrypanosomal activity against Trypanosoma brucei brucei GVR35 infected in NMRI mouse CNS model assessed as survival of mouse at 50mg/kg, po for 10 days; type: functional
[37] = system: Trypanosoma brucei brucei; assay: Antitrypanosomal activity against Trypanosoma brucei brucei GVR35 infected in NMRI mouse CNS model assessed as cure from infection at 10 mg/kg, po for 10 days; type: functional, organism-based; parameters: dose 10 mg/kg
[38] = system: Trypanosoma brucei rhodesiense; assay: Antitrypanosomal activity against wild-type Trypanosoma brucei rhodesiense STIB900 infected in NMRI mouse assessed as cure from infection at 2.5 mg/kg, po for 4 days; type: functional, organism-based; parameters: dose 2.5 mg/kg
[39] = system: Trypanosoma brucei rhodesiense; assay: Antitrypanosomal activity against wild-type Trypanosoma brucei rhodesiense STIB900 infected in NMRI mouse assessed as survival of mouse at 2.5 mg/kg, po for 4 days; type: functional
[40] = system: Trypanosoma brucei rhodesiense; assay: Antitrypanosomal activity against wild-type Trypanosoma brucei rhodesiense STIB900 infected in NMRI mouse assessed as survival of mouse at 5 mg/kg, ip for 4 days; type: functional; conditions: route intraperitoneal

SMILES | MSD [1] | MSD [2] | MSD [4] | Activity [5] | IC50 [6] | IC50 [7] | IC50 [8] | IC50 [9] | Ratio IC50 [10] | Ratio IC50 [11] | Ratio IC50 [12] | Ratio IC50 [13] | IC50 [14] | IC50 [15] | Ratio IC50 [16] | IC50 [17] | Ratio IC50 [18] | IC50 [19] | Ratio IC50 [20] | MSD [28] | also measured
CO/N=C(/N)c1ccc(-c2ccc(-c3ccc(/C(N)=N/O)cn3)o2)nc1 | 29.7 days | >140.4 days | >61 days | Active | – | – | – | – | – | – | – | – | – | – | – | – | – | – | – | – | Activity [3]: inactive
Nc1nc(N)nc(Nc2ccc([As]3SCC(CO)S3)cc2)n1 (stereo not given) [MELARSOPROL] | – | – | – | – | 0.0187 µg/mL | 2.7 ng/mL | 1.4 ng/mL | 0.0567 µg/mL | 3.9 | 5.2 | 20.9 | 42 | 0.0282 µg/mL | 3.6 ng/mL | 2 | 5.3 ng/mL | 2.3 | 0.0031 µg/mL | 14 | – | –
N=C(N)c1ccc(-c2ccc(-c3ccc(C(=N)N)cn3)o2)nc1 | – | – | – | – | 0.106 µg/mL (≈ 0.347 µM) | 16.2 ng/mL (≈ 0.0529 µM) | – | 0.0643 µg/mL (≈ 0.21 µM) | 5.4 | 17.8 | 10.5 | 10 | 0.0679 µg/mL (≈ 0.222 µM) | 6 ng/mL (≈ 0.0196 µM) | 2.5 | 35.1 ng/mL (≈ 0.115 µM) | 6.1 | 0.0395 µg/mL (≈ 0.129 µM) | 14 | >60 days | MSD [21]: 95.6 days; Activity [22]: Active; Activity [23]: Active; MSD [24]: >31 days; MSD [25]: >132.3 days; Activity [26]: Active; Activity [27]: inactive; MSD [29]: >180 days
CO/N=C(\N)c1ccc(-c2ccc(-c3ccc(/C(N)=N\O)cn3)o2)cc1 | >39.5 days | >180 days | >60 days | Active | – | – | – | – | – | – | – | – | – | – | – | – | – | – | – | – | MSD [30]: >164.8 days; Activity [31]: Active; MSD [32]: >157.2 days
CO/N=C(\N)c1ccc(-c2ccc(-c3ccc(/C(N)=N/OC)cn3)o2)cc1 | >50.25 days | >180 days | >60 days | Active | – | – | – | – | – | – | – | – | – | – | – | – | – | – | – | – | MSD [33]: >149.6 days; MSD [34]: 75.25 days; MSD [30]: >172 days; Activity [31]: Active; MSD [35]: 117.6 days; MSD [32]: >176.6 days; MSD [36]: >180 days; Activity [37]: inactive; Activity [38]: inactive; MSD [39]: 19.5 days
N=C(N)c1ccc(OCCCCCOc2ccc(C(=N)N)cc2)cc1 [PENTAMIDINE] | – | – | – | – | 0.0041 µg/mL (≈ 0.012 µM) | 4.2 ng/mL (≈ 0.0123 µM) | 1.2 ng/mL (≈ 0.00352 µM) | 0.124 µg/mL (≈ 0.366 µM) | 0.9 | 4.3 | 113.1 | 105.4 | 0.134 µg/mL (≈ 0.392 µM) | 0.9 ng/mL (≈ 0.00264 µM) | 3.6 | 1.1 ng/mL (≈ 0.00323 µM) | 13.1 | 0.0155 µg/mL (≈ 0.0455 µM) | – | >57.5 days | MSD [40]: >45 days
